Key:
[1] = target: T1, alcohol dehydrogenase (ADH) (Saccharomyces cerevisiae, UniProt P00330); assay: Stability of alcohol dehydrogenase with coenzyme in a liquid phase at 35° C.; format: biochemical, yeast; details: 65 hours at 35° C., 5 mg/ml ADH, 50 mg/ml coenzyme, pH 9.0
T1 sequence (P00330 1-348): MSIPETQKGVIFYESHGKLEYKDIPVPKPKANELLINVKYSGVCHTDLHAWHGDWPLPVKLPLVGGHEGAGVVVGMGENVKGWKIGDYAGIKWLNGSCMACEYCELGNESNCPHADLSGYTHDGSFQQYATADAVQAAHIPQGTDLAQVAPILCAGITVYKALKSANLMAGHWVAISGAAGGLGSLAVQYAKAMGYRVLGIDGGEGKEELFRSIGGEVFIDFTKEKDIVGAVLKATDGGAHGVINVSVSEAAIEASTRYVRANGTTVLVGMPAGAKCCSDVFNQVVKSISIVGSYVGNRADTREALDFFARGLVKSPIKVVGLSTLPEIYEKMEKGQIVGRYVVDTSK
Procedure: FIG. 12 is a graphical illustration of the stability of alcohol dehydrogenase from yeast in the presence of NAD or cNAD in a liquid phase at 35° C. for a period of 65 hours with test conditions of 5 mg/ml ADH; 50 mg/ml NAD or cNAD; buffer: 75 mM Na4P2O7; glycine, pH 9.0; temperature 35° C.
cNAD or NAD was added to a detection solution containing alcohol dehydrogenase. These mixtures were stored at 2-8° C. and at 35° C. Subsequently, the stability of alcohol dehydrogenase (ADH) was checked at regular intervals and the residual activity of the enzyme was determined.
The residual activity of alcohol dehydrogenase in the presence of the native coenzyme NAD is at about 6% after 65 hours at 35° C., whereas the residual activity of the enzyme in the presence of the artificial coenzyme cNAD is still at about 60%.

[2] = target: T2, glucose dehydrogenase (GlucDH) (Bacillus subtilis, UniProt P12310); assay: Reaction kinetics, function curve and dry blank value of GlucDH/coenzyme formulations after warm, humid storage; format: biochemical
T2 sequence (P12310 whole entry): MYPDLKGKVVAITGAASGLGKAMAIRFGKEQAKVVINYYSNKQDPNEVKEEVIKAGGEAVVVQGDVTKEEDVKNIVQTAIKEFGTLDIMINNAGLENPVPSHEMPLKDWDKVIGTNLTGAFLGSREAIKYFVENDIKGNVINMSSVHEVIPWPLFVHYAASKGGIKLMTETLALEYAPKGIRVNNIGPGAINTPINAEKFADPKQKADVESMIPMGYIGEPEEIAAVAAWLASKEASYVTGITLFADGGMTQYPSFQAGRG
Procedure: (§1) carbaNAD (FIG. 1A) or NAD were added to the glucose-specific GlucDH. These formulations were each applied to Pokalon foils (Lonza) and, after drying, stored under warm and humid conditions (32° C., 85% relative air humidity). Subsequently, the reaction kinetics and the function curve were determined at regular intervals. In parallel at each of the measurement times a cNAD/NAD analysis and a determination of the residual activity of the enzyme were carried out.
However, a significant difference in the kinetics curves can be seen after 5 weeks.
There is also a considerable difference in the blank values (dry blank value before application of a blood sample) as shown in FIG. 3.
The different stability of glucose dehydrogenase in the presence of NAD or cNAD is also evident from a comparison of FIGS. 4 and 5. […] In this connection it is clear that the function of the enzyme is only slightly changed at high glucose concentrations over the entire period and approximately corresponds after 24 weeks to the value obtained after 5 weeks.

[3] = target: Glucose dehydrogenase mutant2 (Bacillus subtilis, UniProt P12310, A229V/A236S/E170K/Q252L); assay: Enzyme activity in test strips stored up to 18 weeks (Table 6); format: biochemical
Chain of Glucose dehydrogenase mutant2 (P12310 whole entry E170K/A229V/A236S/Q252L): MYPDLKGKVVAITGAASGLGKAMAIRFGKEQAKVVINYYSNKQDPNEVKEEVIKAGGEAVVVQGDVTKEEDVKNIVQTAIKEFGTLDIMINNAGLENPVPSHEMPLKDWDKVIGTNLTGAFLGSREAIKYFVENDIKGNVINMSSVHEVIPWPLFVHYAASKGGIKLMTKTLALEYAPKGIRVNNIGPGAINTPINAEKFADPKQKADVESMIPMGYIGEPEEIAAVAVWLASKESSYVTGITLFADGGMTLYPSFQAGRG
Procedure: In order to evaluate the stabilization of glucose dehydrogenase and diaphorase by carbaNAD, a number of test strips were prepared in analogy to Example 5.
The test strips were stored over a period of 18 weeks at temperatures of 5° C. (KS, refrigerator), 25° C. (RT), 30° C. (GT), 35° C. (DT) and 45° C. (HT), and the enzyme activity in the test strips was determined at the start of storage (0 weeks), after 6 weeks, after 9 weeks, after 12 weeks and after 18 weeks. The results are shown in Table 6 (glucose dehydrogenase) and in Table 7 (diaphorase).

[4] = target: glucose dehydrogenase (GlucDH, wild-type) (Bacillus subtilis, UniProt P12310); assay: Residual activity of GlucDH stored dry on Pokalon foils with coenzyme at 32° C., 85% relative air humidity; format: biochemical
Chain of glucose dehydrogenase (GlucDH, wild-type) (P12310 whole entry): as the sequence (P12310 whole entry) above
Procedure: as §1
The result of the determination of residual activity of the active enzyme GlucDH after 5 weeks at 32° C. and 85% relative air humidity (FIG. 7A) is completely surprising. The enzyme stabilized with NAD now only has an extremely low enzyme activity (0.5%), whereas the enzyme stabilized with cNAD still has a residual activity of 70% (in each case compared to the samples stored in a refrigerator (KS) with desiccant (TM)). After 24 weeks at 32° C. and 85% relative air humidity (FIG. 7B) the residual activity of the enzyme when stabilized with cNAD is still about 25%.

[5] = target: T2, glucose dehydrogenase (GlucDH); assay: Stability of glucose dehydrogenase with coenzyme in a liquid phase at 50° C.; format: biochemical; details: 10 mg/ml GlucDH, 12 mg/ml coenzyme, pH 8.5
Procedure: FIGS. 9A and 9B are graphical illustrations of the stability of glucose dehydrogenase in the presence of NAD or cNAD in a liquid phase at 50° C. for a period of 4 days (FIG. 9A) or 14 days (FIG. 9B) with test conditions of 10 mg/ml GlucDH; 12 mg/ml NAD or cNAD; buffer: 0.1 M Tris, 1.2 M NaCl, pH 8.5; temperature 50° C.
After 95 hours at 50° C. the residual activity of glucose dehydrogenase in the presence of the native coenzyme NAD is […], whereas the residual activity of GlucDH in the presence of the artificial coenzyme cNAD is 75% (FIG. 9A). After 336 hours storage at 50° C. the residual activity of the enzyme stabilized with NAD is now only about 1%; a residual activity of still about 70% is observed for the enzyme stored in the presence of cNAD. The corresponding SDS gels also show a change in the GlucDH bands in the presence of the native coenzyme NAD: new bands are seen at higher molar masses and there is a shift in the 30 kDa band.

[6] = target: L lactate dehydrogenase (from rabbit) (Oryctolagus cuniculus, UniProt P13491); assay: DSC of coenzyme binding; details: 3.8 mM ligand; 0.1 M Tris buffer, pH 8.5
[7] = target: glucose dehydrogenase (wild-type) (Bacillus subtilis, UniProt P12310); assay: DSC of coenzyme binding; details: 3.8 mM ligand; 0.1 M Tris buffer, pH 8.5
Chain of glucose dehydrogenase (wild-type) (P12310 whole entry): as above

NC(=O)c1ccc[n+]([C@@H]2C[C@H](COP(=O)([O-])OP(=O)(O)OC[C@H]3O[C@@H](n4cnc5c(N)ncnc54)[C@H](O)[C@@H]3O)[C@@H](O)[C@H]2O)c1 [carbaNAD]
residual activity of alcohol dehydrogenase [1]: about 60%
function curve of GlucDH ([2]; after 5 weeks at 32° C. and 85% air humidity): still lies within the set of curves of the previous measurements
kinetics curves of GlucDH ([2]; after 5 weeks at 32° C. and 85% relative air humidity): remains virtually unchanged
dry blank value before application of a blood sample ([2]; up to 5 weeks at 32° C. and 85% air humidity): does not occur
Enzyme activity, glucose dehydrogenase ([3]; 0 weeks (start of storage)): 19.8 U/cm^2
Enzyme activity, glucose dehydrogenase ([3]; DT (35° C.), 6 weeks): 19.8 U/cm^2
Enzyme activity, glucose dehydrogenase ([3]; DT (35° C.), 9 weeks): 20.2 U/cm^2
Enzyme activity, glucose dehydrogenase ([3]; DT (35° C.), 12 weeks): 17.2 U/cm^2
Enzyme activity, glucose dehydrogenase ([3]; DT (35° C.), 18 weeks): 16.9 U/cm^2
Enzyme activity, glucose dehydrogenase ([3]; GT (30° C.), 12 weeks): 17.6 U/cm^2
Enzyme activity, glucose dehydrogenase ([3]; GT (30° C.), 18 weeks): 16.8 U/cm^2
Enzyme activity, glucose dehydrogenase ([3]; HT (45° C.), 6 weeks): 19.0 U/cm^2
Enzyme activity, glucose dehydrogenase ([3]; HT (45° C.), 9 weeks): 18.8 U/cm^2
Enzyme activity, glucose dehydrogenase ([3]; KS (5° C.), 6 weeks): 20.4 U/cm^2
Enzyme activity, glucose dehydrogenase ([3]; KS (5° C.), 9 weeks): 21.2 U/cm^2
Enzyme activity, glucose dehydrogenase ([3]; KS (5° C.), 12 weeks): 18.5 U/cm^2
Enzyme activity, glucose dehydrogenase ([3]; KS (5° C.), 18 weeks): 18.8 U/cm^2
Enzyme activity, glucose dehydrogenase ([3]; RT (25° C.), 6 weeks): 20.7 U/cm^2
Enzyme activity, glucose dehydrogenase ([3]; RT (25° C.), 9 weeks): 21.5 U/cm^2
Enzyme activity, glucose dehydrogenase ([3]; RT (25° C.), 12 weeks): 18.0 U/cm^2
Enzyme activity, glucose dehydrogenase ([3]; RT (25° C.), 18 weeks): 17.7 U/cm^2
residual activity of GlucDH ([4]; 5 weeks at 32° C. and 85% relative air humidity, compared to samples stored in refrigerator with desiccant): 70%
residual activity of GlucDH ([4]; 24 weeks at 32° C. and 85% relative air humidity): about 25%
residual activity of glucose dehydrogenase ([5]; 95 hours at 50° C.): 75%
residual activity of glucose dehydrogenase ([5]; 336 hours at 50° C.): about 70%
TM [6]: 60.2 °C
ΔHcal [6]: 66 kcal/mol
TM [7]: 58.5 °C
ΔHcal [7]: 84 kcal/mol
